What was measured:
Euglena gracilis Z [1] = assay: Study 2 and reference study: proliferation (cell density) of Euglena under strong or weak light; format: cell-based; conditions: 0.5 mM ascorbic acid in place of PMF
Description: The CM medium having a PMF concentration of 0.5 g/L was placed into the same three-electrode electrochemical cell as the Study 1.
To the medium, the precultured Euglena was added at an initial density (OD800) of 0.05 and electrochemically cultured under strong light having an intensity of 5000 lux, which is about one tenth of the maximum intensity of sunlight. After 0, 24, 48, 76, 96, and 148 hours from the start of the culture, the cell density was determined (Example 2). The voltage applied was +0.6 V vs. SHE.
A similar study was performed on Euglena non-electrochemically cultured in the medium that included no PMF (Comparative Example 3).
A similar study was also performed on Euglena electrochemically cultured in the medium that included PMF (Comparative Example 4) and Euglena electrochemically cultured in the medium that included no PMF (Comparative Example 5) under weak light having an intensity of 1000 lux, which is about one fiftieth of the maximum intensity of sunlight.
In the study, proliferation of Euglena that were cultured in the medium supplemented with or without 0.5 mM of ascorbic acid in place of PMF used in the Study 2 under strong light or under weak light was compared. The study was performed in the same manner as in the Study 2 except that 0.5 mM of ascorbic acid was added in place of PMF.

Euglena gracilis Z [2] = assay: Study 3: photocurrent after addition of Euglena and of electron transport inhibitor DBMIB; format: cell-based; conditions: DBMIB 100 μM added after about 37 minutes to PMF 3 g/L medium with Euglena; current before about 8 μA
Description: To determine whether the effect of the medium supplemented with PMF in facilitating the proliferation of Euglena in electrochemical culture as shown by the Studies 1 and 2 is attributed to extracellular transfer of electrons from Euglena, DBMIB (2,5-dibromo-3-methyl-6-isopropyl-p-benzoquinone), which is an electron transport inhibitor, was added to the culture system that included PMF, and a change in photocurrent was measured.
DBMIB binds to the plastoquinone-binding site of the cytochrome b6f and prevents the oxidation of reduced plastoquinone thereby inhibiting electron transport. DBMIB inhibits the transfer of electrons from plastoquinone to the photosystem I and thus is used to measure the activity of the photosystem II.
In the Study 3, the CM medium having a PMF concentration of 3 g/L was placed into the same three-electrode electrochemical cell as the Study 1. Then, the electrochemical cell was placed into a shielded enclosure to measure the photocurrent.
After about 21 minutes from the start of the measurement, the precultured Euglena was added at an initial density (OD800) of 0.5. After about 37 minutes from the start of the measurement, DBMIB was added at a concentration of 100 μM to the medium.

SMILES | facilitating the proliferation of Euglena under strong light (Euglena gracilis Z [1]; strong light (5000 lux)) | facilitating the proliferation of Euglena under weak light (Euglena gracilis Z [1]; weak light (1000 lux)) | current after addition of DBMIB (Euglena gracilis Z [2])
O=C1O[C@H]([C@@H](O)CO)C(O)=C1O [ascorbic acid] | effective in facilitating the proliferation of Euglena | not effective in facilitating the proliferation | 
CC1=C(Br)C(=O)C(C(C)C)=C(Br)C1=O [DBMIB, 2,5-dibromo-3-methyl-6-isopropyl-p-benzoquinone] |  |  | about 4 μA
